From PubChem BioAssay (NCI)
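How tested: cells in 96-well plates exposed to compound for 48 hours at five concentrations. GI50: concentration for 50% inhibition of growth. TGI: concentration producing complete growth inhibition.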

Assays:
Experiment in all cases: DTP human tumour cell line panel, 48 h
786-0 renal = tested on: 786-0 renal
A498 renal = tested on: A498 renal
A549 NSCLC = tested on: A549 NSCLC
ACHN renal = tested on: ACHN renal
BT-549 breast = tested on: BT-549 breast
CAKI-1 renal = tested on: CAKI-1 renal
CCRF-CEM leukemia = tested on: CCRF-CEM leukemia
COLO 205 colon = tested on: COLO 205 colon
DU-145 prostate = tested on: DU-145 prostate
EKVX NSCLC = tested on: EKVX NSCLC
HCC-2998 colon = tested on: HCC-2998 colon
HCT-116 colon = tested on: HCT-116 colon
HCT-15 colon = tested on: HCT-15 colon
HL-60(TB) leukemia = tested on: HL-60(TB) leukemia
HOP-62 NSCLC = tested on: HOP-62 NSCLC
HOP-92 NSCLC = tested on: HOP-92 NSCLC
HS 578T breast = tested on: HS 578T breast
HT29 colon = tested on: HT29 colon
IGROV1 ovarian = tested on: IGROV1 ovarian
K-562 leukemia = tested on: K-562 leukemia
KM12 colon = tested on: KM12 colon
LOX IMVI melanoma = tested on: LOX IMVI melanoma
M14 melanoma = tested on: M14 melanoma
MALME-3M melanoma = tested on: MALME-3M melanoma
MCF7 breast = tested on: MCF7 breast
MDA-MB-231 breast = tested on: MDA-MB-231 breast
MDA-MB-435 = tested on: MDA-MB-435
MOLT-4 leukemia = tested on: MOLT-4 leukemia
NCI-H226 lung = tested on: NCI-H226 lung
NCI-H23 lung = tested on: NCI-H23 lung
NCI-H460 lung = tested on: NCI-H460 lung
NCI-H522 lung = tested on: NCI-H522 lung
NCI/ADR-RES ovarian = tested on: NCI/ADR-RES ovarian
OVCAR-4 ovarian = tested on: OVCAR-4 ovarian
OVCAR-5 ovarian = tested on: OVCAR-5 ovarian
OVCAR-8 ovarian = tested on: OVCAR-8 ovarian
PC-3 prostate = tested on: PC-3 prostate
RPMI-8226 leukemia = tested on: RPMI-8226 leukemia
RXF 393 renal = tested on: RXF 393 renal
SF-268 CNS = tested on: SF-268 CNS
SF-295 CNS = tested on: SF-295 CNS
SF-539 CNS = tested on: SF-539 CNS
SK-MEL-2 melanoma = tested on: SK-MEL-2 melanoma
SK-MEL-28 melanoma = tested on: SK-MEL-28 melanoma
SK-MEL-5 melanoma = tested on: SK-MEL-5 melanoma
SK-OV-3 ovarian = tested on: SK-OV-3 ovarian
SN12C renal = tested on: SN12C renal
SNB-19 CNS = tested on: SNB-19 CNS
SNB-75 CNS = tested on: SNB-75 CNS
SR leukemia = tested on: SR leukemia
SW-620 colon = tested on: SW-620 colon
T-47D breast = tested on: T-47D breast
TK-10 renal = tested on: TK-10 renal
U251 CNS = tested on: U251 CNS
UACC-257 melanoma = tested on: UACC-257 melanoma
UACC-62 melanoma = tested on: UACC-62 melanoma
UO-31 renal = tested on: UO-31 renal

Oc1ccc(-c2nnc(SCc3ccc(O)c4ncccc34)o2)cc1 was tested. Which GI50 (786-0 renal) did it give?
Its GI50 is 2640 nM.

What about the TGI (786-0 renal) of the same compound?
Its TGI is 9550 nM.

What about the GI50 (A498 renal) of the same compound?
Its GI50 is 2370 nM.

What about the TGI (A498 renal) of the same compound?
Its TGI is 7490 nM.

What about the GI50 (A549 NSCLC) of the same compound?
Its GI50 is 839 nM.

And the TGI (A549 NSCLC)?
Its TGI is > 31100 nM.

And the GI50 (ACHN renal)?
The GI50 was 1080 nM.

What about the TGI (ACHN renal) of the same compound?
The TGI was 10100 nM.

And the GI50 (BT-549 breast)?
Its GI50 is 444 nM.

And the TGI (BT-549 breast)?
The TGI was 21200 nM.

And the GI50 (CAKI-1 renal)?
The GI50 was 2260 nM.

And the TGI (CAKI-1 renal)?
The TGI was 8840 nM.

And the GI50 (CCRF-CEM leukemia)?
The GI50 was 833 nM.

What about the TGI (CCRF-CEM leukemia) of the same compound?
The TGI was > 100000 nM.

And the GI50 (COLO 205 colon)?
The GI50 was 3060 nM.

And the TGI (COLO 205 colon)?
Its TGI is 11400 nM.

And the GI50 (DU-145 prostate)?
The GI50 was 582 nM.

And the TGI (DU-145 prostate)?
The TGI was 28900 nM.

What about the GI50 (EKVX NSCLC) of the same compound?
The GI50 was 2630 nM.

What about the TGI (EKVX NSCLC) of the same compound?
Its TGI is 11300 nM.

And the GI50 (HCC-2998 colon)?
The GI50 was 3220 nM.

What about the TGI (HCC-2998 colon) of the same compound?
Its TGI is > 68800 nM.

And the GI50 (HCT-116 colon)?
The GI50 was 379 nM.

What about the TGI (HCT-116 colon) of the same compound?
The TGI was 26300 nM.

What about the GI50 (HCT-15 colon) of the same compound?
The GI50 was 510 nM.

And the TGI (HCT-15 colon)?
Its TGI is > 100000 nM.

What about the GI50 (HL-60(TB) leukemia) of the same compound?
Its GI50 is 1390 nM.

What about the TGI (HL-60(TB) leukemia) of the same compound?
The TGI was 6190 nM.

What about the GI50 (HOP-62 NSCLC) of the same compound?
The GI50 was 543 nM.

What about the TGI (HOP-62 NSCLC) of the same compound?
Its TGI is 7590 nM.

What about the GI50 (HOP-92 NSCLC) of the same compound?
The GI50 was 219 nM.

And the TGI (HOP-92 NSCLC)?
The TGI was 747 nM.

What about the GI50 (HS 578T breast) of the same compound?
The GI50 was 388 nM.

And the TGI (HS 578T breast)?
Its TGI is > 22300 nM.

And the GI50 (HT29 colon)?
The GI50 was 3570 nM.

What about the TGI (HT29 colon) of the same compound?
The TGI was > 100000 nM.

And the GI50 (IGROV1 ovarian)?
The GI50 was 2230 nM.

And the TGI (IGROV1 ovarian)?
The TGI was 13200 nM.

And the GI50 (K-562 leukemia)?
Its GI50 is 418 nM.

And the TGI (K-562 leukemia)?
Its TGI is > 100000 nM.

What about the GI50 (KM12 colon) of the same compound?
Its GI50 is 1560 nM.

And the TGI (KM12 colon)?
Its TGI is > 100000 nM.

And the GI50 (LOX IMVI melanoma)?
Its GI50 is 406 nM.

And the TGI (LOX IMVI melanoma)?
The TGI was 11900 nM.

What about the GI50 (M14 melanoma) of the same compound?
The GI50 was 544 nM.

And the TGI (M14 melanoma)?
The TGI was 3880 nM.

And the GI50 (MALME-3M melanoma)?
Its GI50 is 1960 nM.

What about the TGI (MALME-3M melanoma) of the same compound?
The TGI was 17600 nM.

And the GI50 (MCF7 breast)?
Its GI50 is 721 nM.

What about the TGI (MCF7 breast) of the same compound?
The TGI was > 100000 nM.

What about the GI50 (MDA-MB-231 breast) of the same compound?
The GI50 was 1960 nM.

And the TGI (MDA-MB-231 breast)?
The TGI was 14700 nM.

What about the GI50 (MDA-MB-435) of the same compound?
The GI50 was 418 nM.

What about the TGI (MDA-MB-435) of the same compound?
The TGI was > 100000 nM.

What about the GI50 (MOLT-4 leukemia) of the same compound?
Its GI50 is 1260 nM.

What about the TGI (MOLT-4 leukemia) of the same compound?
The TGI was > 100000 nM.

And the GI50 (NCI-H226 lung)?
Its GI50 is 3130 nM.

What about the TGI (NCI-H226 lung) of the same compound?
The TGI was > 100000 nM.

What about the GI50 (NCI-H23 lung) of the same compound?
Its GI50 is 527 nM.

What about the TGI (NCI-H23 lung) of the same compound?
Its TGI is 11600 nM.

What about the GI50 (NCI-H460 lung) of the same compound?
The GI50 was 364 nM.

And the TGI (NCI-H460 lung)?
The TGI was 5090 nM.

And the GI50 (NCI-H522 lung)?
The GI50 was 402 nM.

And the TGI (NCI-H522 lung)?
Its TGI is 20500 nM.

What about the GI50 (NCI/ADR-RES ovarian) of the same compound?
Its GI50 is 1540 nM.

And the TGI (NCI/ADR-RES ovarian)?
The TGI was > 73700 nM.

And the GI50 (OVCAR-4 ovarian)?
Its GI50 is 3410 nM.

And the TGI (OVCAR-4 ovarian)?
The TGI was > 100000 nM.

And the GI50 (OVCAR-5 ovarian)?
Its GI50 is 3330 nM.

What about the TGI (OVCAR-5 ovarian) of the same compound?
The TGI was > 100000 nM.

What about the GI50 (OVCAR-8 ovarian) of the same compound?
The GI50 was 440 nM.

And the TGI (OVCAR-8 ovarian)?
The TGI was > 40000 nM.

What about the GI50 (PC-3 prostate) of the same compound?
Its GI50 is 584 nM.

What about the TGI (PC-3 prostate) of the same compound?
Its TGI is > 100000 nM.

What about the GI50 (RPMI-8226 leukemia) of the same compound?
The GI50 was 544 nM.

And the TGI (RPMI-8226 leukemia)?
Its TGI is > 100000 nM.

What about the GI50 (RXF 393 renal) of the same compound?
Its GI50 is 1430 nM.

What about the TGI (RXF 393 renal) of the same compound?
Its TGI is 34300 nM.

And the GI50 (SF-268 CNS)?
The GI50 was 658 nM.

What about the TGI (SF-268 CNS) of the same compound?
The TGI was 35300 nM.

What about the GI50 (SF-295 CNS) of the same compound?
The GI50 was 978 nM.

And the TGI (SF-295 CNS)?
The TGI was 10600 nM.

What about the GI50 (SF-539 CNS) of the same compound?
The GI50 was 666 nM.

What about the TGI (SF-539 CNS) of the same compound?
Its TGI is 15000 nM.

And the GI50 (SK-MEL-2 melanoma)?
The GI50 was 587 nM.

And the TGI (SK-MEL-2 melanoma)?
Its TGI is 6910 nM.

And the GI50 (SK-MEL-28 melanoma)?
Its GI50 is 2080 nM.

And the TGI (SK-MEL-28 melanoma)?
Its TGI is > 100000 nM.

And the GI50 (SK-MEL-5 melanoma)?
Its GI50 is 854 nM.

And the TGI (SK-MEL-5 melanoma)?
Its TGI is > 22800 nM.

And the GI50 (SK-OV-3 ovarian)?
Its GI50 is 1770 nM.

And the TGI (SK-OV-3 ovarian)?
Its TGI is 6540 nM.

What about the GI50 (SN12C renal) of the same compound?
The GI50 was 417 nM.

And the TGI (SN12C renal)?
The TGI was > 38500 nM.

What about the GI50 (SNB-19 CNS) of the same compound?
Its GI50 is 450 nM.

What about the TGI (SNB-19 CNS) of the same compound?
The TGI was 38200 nM.

And the GI50 (SNB-75 CNS)?
The GI50 was 898 nM.

What about the TGI (SNB-75 CNS) of the same compound?
The TGI was 8400 nM.

And the GI50 (SR leukemia)?
Its GI50 is 1100 nM.

And the TGI (SR leukemia)?
The TGI was > 100000 nM.

And the GI50 (SW-620 colon)?
Its GI50 is 680 nM.

And the TGI (SW-620 colon)?
The TGI was > 100000 nM.

And the GI50 (T-47D breast)?
Its GI50 is 2430 nM.

And the TGI (T-47D breast)?
Its TGI is 9390 nM.

What about the GI50 (TK-10 renal) of the same compound?
Its GI50 is 2250 nM.

What about the TGI (TK-10 renal) of the same compound?
The TGI was 7840 nM.

And the GI50 (U251 CNS)?
The GI50 was 386 nM.

And the TGI (U251 CNS)?
The TGI was 13700 nM.

What about the GI50 (UACC-257 melanoma) of the same compound?
The GI50 was 2530 nM.

And the TGI (UACC-257 melanoma)?
The TGI was 7890 nM.

What about the GI50 (UACC-62 melanoma) of the same compound?
The GI50 was 2430 nM.

What about the TGI (UACC-62 melanoma) of the same compound?
Its TGI is 7100 nM.

And the GI50 (UO-31 renal)?
The GI50 was 1350 nM.

And the TGI (UO-31 renal)?
The TGI was 6440 nM.
